Paper PMC8523698, “Preclinical characterization of an intravenous coronavirus 3CL protease inhibitor for the potential treatment of COVID19” (Nature Communications, 2021)
Several values for one entry are separate records, joined by “and”; a condition that tells them apart may be missing. Identical values can stand only once. Like-named read-outs stand apart in the source and are kept apart here.

Legend:
HKU9-CoV 3CL^pro = HKU9-CoV 3CL^pro (Bat coronavirus HKU9, UniProt P0C6W5); assay type: biochemical; conditions: for Initial Velocity: triplicate, listed as Compound F2
Human Cathepsin D = Human Cathepsin D (Homo sapiens, UniProt P07339); test: Mammalian protease panel; assay type: biochemical
CYP3A = test: Enzyme kinetics of metabolite formation in HLM and effect of CYP3A inhibitor ketoconazole

Sequence of HKU9-CoV 3CL^pro (P0C6W5 3104-3409 limits assumed): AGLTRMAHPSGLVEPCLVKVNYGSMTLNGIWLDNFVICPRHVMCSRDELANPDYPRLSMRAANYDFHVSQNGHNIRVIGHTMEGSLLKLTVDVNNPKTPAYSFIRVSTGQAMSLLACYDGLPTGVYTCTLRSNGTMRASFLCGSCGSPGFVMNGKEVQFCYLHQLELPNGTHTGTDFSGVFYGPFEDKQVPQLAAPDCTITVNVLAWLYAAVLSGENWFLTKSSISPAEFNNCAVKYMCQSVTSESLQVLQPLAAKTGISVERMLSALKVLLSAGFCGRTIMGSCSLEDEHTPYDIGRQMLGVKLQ
Sequence of Human Cathepsin D (P07339 65-412): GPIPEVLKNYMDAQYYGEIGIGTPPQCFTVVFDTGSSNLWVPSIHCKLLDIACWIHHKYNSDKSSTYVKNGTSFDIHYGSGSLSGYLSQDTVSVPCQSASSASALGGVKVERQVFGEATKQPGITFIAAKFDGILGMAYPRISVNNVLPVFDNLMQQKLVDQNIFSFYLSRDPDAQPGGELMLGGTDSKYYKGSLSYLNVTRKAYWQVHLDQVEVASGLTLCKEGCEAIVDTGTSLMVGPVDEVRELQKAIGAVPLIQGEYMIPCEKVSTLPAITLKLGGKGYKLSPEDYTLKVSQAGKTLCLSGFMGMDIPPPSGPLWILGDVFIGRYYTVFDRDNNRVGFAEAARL

Compound: COc1cccc2[nH]c(C(=O)N[C@@H](CC(C)C)C(=O)N[C@@H](C[C@@H]3CCNC3=O)C(=O)CO)cc12 [PF-00835231]
- Initial Velocity (HKU9-CoV 3CL^pro; [Compound F2] 1.95312 nM): 0.9878 and 0.9959 and 0.983
- Initial Velocity (HKU9-CoV 3CL^pro; [Compound F2] 3.90625 nM): 0.9913 and 0.9924 and 0.95
- Initial Velocity (HKU9-CoV 3CL^pro; [Compound F2] 7.8125 nM): 0.9224 and 0.9795 and 0.9137
- Initial Velocity (HKU9-CoV 3CL^pro; [Compound F2] 20 nM): 0.886 and 0.9243 and 0.93
- Initial Velocity (HKU9-CoV 3CL^pro; [Compound F2] 30 nM): 0.8569 and 0.8538 and 0.879
- Initial Velocity (HKU9-CoV 3CL^pro; [Compound F2] 31.25 nM): 0.8589 and 0.8929 and 0.8492
- Initial Velocity (HKU9-CoV 3CL^pro; [Compound F2] 40 nM): 0.8139 and 0.8202 and 0.8114
- Initial Velocity (HKU9-CoV 3CL^pro; [Compound F2] 50 nM): 0.7816 and 0.7894 and 0.7901
- Initial Velocity (HKU9-CoV 3CL^pro; [Compound F2] 60 nM): 0.7312 and 0.6789 and 0.7455
- Initial Velocity (HKU9-CoV 3CL^pro; [Compound F2] 62.5 nM): 0.7579 and 0.8162 and 0.7406
- Initial Velocity (HKU9-CoV 3CL^pro; [Compound F2] 80 nM): 0.682 and 0.6702 and 0.6841
- Initial Velocity (HKU9-CoV 3CL^pro; [Compound F2] 100 nM): 0.6302 and 0.62 and 0.5903
- Initial Velocity (HKU9-CoV 3CL^pro; [Compound F2] 200 nM): 0.2879 and 0.279 and 0.2522
- Initial Velocity (HKU9-CoV 3CL^pro; [Compound F2] 1000 nM): 0.000466 and 0.000256
- Ki (HKU9-CoV 3CL^pro; mean ± SEM): 0.74 ± 0.68 nM
- IC50 (Human Cathepsin D): > 11 µM
- fm,CYP3A (CYP3A; formation of the metabolite from PF-00835231 in HLM): 0.86
- microsomal CLint (CYP3A; human, pooled human liver microsomes, pH 7.5): 4.2 µL/min/mg
